Experimental data reported in patent EP0517412A1, “Pharmaceutical formulations of a benzodiazepine” (MERCK SHARP & DOHME LTD., priority 1991, dated 1992).

What was measured:
Type in all cases: physicochemical
solubility in water = assay: solubility in water
[1] = solubility of the benzodiazepine in prior-art type carriers
[2] = maximum solubility of the benzodiazepine in carriers of the invention

For `Cc1cccc(NC(=O)NC2N=C(c3ccccc3)c3ccccc3N(C)C2=O)c1` (stereo not drawn) [(A), 3R(+)-N-(2,3-dihydro-1-methyl-2-oxo-5-phenyl-1H-1,4-benzodiazepin-3-yl)-N'-(3-methylphenyl)-urea], the solubility (solubility in water) was less than 2 µg/mL, the “solubility (carrier a poor solvent)” value ([1]; benzodiazepine substituted for cyclosporin in formulation type of GB 2 228 198 (Maisine and Cremophore RH40)) was “less than 10 mg/g” and the solubility ([1]; benzodiazepine substituted for cyclosporin in formulation type of GB 2015339 (Labrafil M1944CS and ethanol with corn oil or olive oil; or glycerol mono-oleate and ethanol)) was roughly 20 mg/g. The solubility ([1]; benzodiazepine substituted for dihydrocyclosporin in formulation type of BE 895 724 (ethanol, Imwitor 742, esterified corn oil)) was roughly 60 mg/g, the “amount that can be dissolved” value ([2]; Method 2 (room temperature method, 20°C, Silverson mixer), Labrafil M2125 CS, Tween 80, propylene glycol, purified water) was “up to 6 % (w/w)” and the “maximum solubility for the benzodiazepine” value (from here on “maximum solubility”) ([2]; carrier Labrasol/Tween 80) was roughly 240 mg/g. For the same compound, the “maximum solubility” value ([2]; carrier comprising Imwitor 742 and Tween 80) was roughly 140 mg/g, the “maximum solubility” value ([2]; corresponding Labrafil-containing carrier) was 60 to 80 mg/g and the “solubility in the mixture of ingredients of the carrier” value ([2]; mixture of carrier ingredients compared with the separate ingredients) was “more than in the separate ingredients”. For the same compound, the “percentage of the active ingredient that can be dissolved in the carrier” value ([2]; without heating) was “around 6%”.
